From patent US6663881B2 (priority 1993, dated 2003)
Read-outs that look alike come from different tables or passages of the source.

Tests used:
[1] = system: Vascular smooth muscle cells
[2] = 7 day intravenous toxicity study in rats (Table 11); type: in vivo; conditions: 10 μg/ml IV four times a day for 7 days (800 μg/kg daily)
Method: To determine the toxicity of cytochalasin B, rats (4 male and 4 female) were injected with 10 μg/ml cytochalasin B four times a day for 7 days (Table 11). Data regarding body weight changes, food consumption, food efficiency, hematology parameters, coagulation parameters, serum chemistry parameters, and gross necropsy findings were collected. […] There were no gross or microscopic changes detected in the heart to account for the elevation. Thus, daily administration of cytochalasin B to rats at a dose of 800 μg/kg (for a total injected dose of 5600 μg/kg) may have an effect on heart weight of female (but not male) rats. However, clotted blood was not routinely removed from the heart lumens prior to weighing the heart.

[3] = system: Vascular smooth muscle cells (BO54); experiment: Scratch-migration assay; type: cell-based, baboon; parameters: key: −=no toxicity; +1=minimal; +2=mild; +3=moderate; +4=marked toxicity; conditions: Continuous Exposure
Method: Scratch assays to determine the extent of smooth muscle cell migration inhibition by cytochalasin B were performed in accordance with the following protocol:
Vascular smooth muscle cells (BO54) were derived from explants of baboon aortic smooth muscle, as described in Example 10. The cells were grown in flat bottom, six well tissue culture plates, which hold about 5 ml of medium. The vascular smooth muscle cells were plated at 200,000 cells/well and placed at 37° C. in a humidified 5% CO2 incubator for 18 hours. The wells were then scratched with a sterile portion of a single edge razor blade that was held by clamp or pliers and was brought aseptically into contact with the bottom of the well at a 90° angle. The cells from a small area along the scratch were removed by a sterile cotton tipped applicator while the blade was in contact with the bottom of the well. After incubation, the presence of cells in the “scratched” area is indicative of cell migration across the scratch line.
Briefly, a stock solution of cytochalasin B (Sigma Chemical Co.) in dimethyl sulfoxide (DMSO) at 1 mg/ml was prepared. Test dilutions of cytochalasin B or control medium were added. Each experiment included two sets of plates:
A set: Test agent exposure for 1, 3, 6, 8 and 10 days only; and
B set: Test agent exposure for 1, 3, 6, 8 and 10 days, followed by a seven day recovery time with control medium.
Both sets of plates were fixed (10% formalin in PBS) and stained (0.02% crystal violet) at the end of the timed exposures. Test concentrations for cytochalasin B were 1, 0.1 and 0.01 μg/ml, and a negative medium control was included. […]
In this Table, “M” indicates Migration Grade, wherein −=no migration; +1=minimal; +2=mild; +3=moderate; and +4=marked (maximum density; limit of cell contact inhibition) migration of vascular smooth muscle cells into the cleared area adjacent to the scratch. […] The migration results are expressed as “Grade in the Cleared Area of the Well/Grade in an Undisturbed Region of the Well.” The toxicity values represent a grade for all cells in each well.

[4] = Tissue distribution of cytochalasin B after intravenous administration (TLC); type: in vivo, mice
Method: Cytochalasin B was also administered intravenously to mice at 3.5 mg/kg (in methanol or Tween 20/carboxymethyl cellulose). Mice were sacrificed at 2 minutes, 15 minutes, 30 minutes, 3 hours and 12 hours after cytochalasin B administration and tissue extracts analyzed for cytochalasin by TLC. The maximal recovery of cytochalasin B from tissue extracts was 32%.

[5] = system: balloon traumatized pig femoral artery; experiment: Sustained release adventitial wraps on balloon traumatized pig femoral artery (Table 16, Group 12); type: in vivo; conditions: Group 12: 30% wt/wt loaded silicone wraps
Description: To determine the efficacy of the local, sustained release dosage forms of cytochalasin B or taxol to inhibit restenosis, cytochalasin B or taxol in a supporting structure, e.g., a “wrap,” was applied to the adventitial tissue surrounding a balloon traumatized rabbit carotid artery (Groups 1-11) or a balloon traumatized pig femoral artery (Group 12) (Table 16).
While there was intimal proliferation in the arteries 3 weeks later, the proliferation was still less than the proliferation observed for the controls.

[6] = system: balloon traumatized swine coronary arteries; experiment: Dose-response study of balloon traumatized swine coronary arteries (Table 14, morphometry); type: in vivo

SMILES: C=C1[C@@H](C)[C@H]2[C@H](Cc3ccccc3)NC(=O)[C@]23OC(=O)/C=C/[C@H](O)CCC[C@@H](C)C/C=C/[C@H]3[C@@H]1O [cytochalasin B]
- Morphological cytotoxicity grade ([1]; 0.01 μg, 24 hrs + 24 hrs): 0
- Morphological cytotoxicity grade ([1]; 0.01 μg, 24 hrs + 48 hrs): 0
- Morphological cytotoxicity grade ([1]; 0.01 μg, 24 hrs + 72 hrs): 0
- Morphological cytotoxicity grade ([1]; 0.01 μg, 24 hrs + 96 hrs): 0
- Morphological cytotoxicity grade ([1]; 0.01 μg, 24 hrs + 120 hrs): 0
- Morphological cytotoxicity grade ([1]; 0.01 μg, Continuous 6 hrs): 0
- Morphological cytotoxicity grade ([1]; 0.01 μg, Continuous 24 hrs (first listing)): 0
- Morphological cytotoxicity grade ([1]; 0.01 μg, Continuous 24 hrs (second listing)): 0
- Morphological cytotoxicity grade ([1]; 0.01 μg, Continuous 48 hrs): 0
- Morphological cytotoxicity grade ([1]; 0.01 μg, Continuous 72 hrs): 0
- Morphological cytotoxicity grade ([1]; 0.01 μg, Continuous 96 hrs): 0
- Morphological cytotoxicity grade ([1]; 0.01 μg, Continuous 120 hrs): 0
- Morphological cytotoxicity grade ([1]; 0.01 μg, Continuous 168 hrs): 0
- Morphological cytotoxicity grade ([1]; 0.01 μg, Continuous 216 hrs): 0
- Morphological cytotoxicity grade ([1]; 0.01 μg, Continuous 264 hrs): 0
- Morphological cytotoxicity grade ([1]; 0.1 μg, 5 min + 2 hrs): 0
- Morphological cytotoxicity grade ([1]; 0.1 μg, 5 min + 24 hrs): 0
- Morphological cytotoxicity grade ([1]; 0.1 μg, 5 min + 48 hrs): 0
- Morphological cytotoxicity grade ([1]; 0.1 μg, 5 min + 72 hrs): 0
- Morphological cytotoxicity grade ([1]; 0.1 μg, 5 min + 96 hrs): 0
- Morphological cytotoxicity grade ([1]; 0.1 μg, 5 min + 120 hrs): 0
- Morphological cytotoxicity grade ([1]; 0.1 μg, 24 hrs + 24 hrs): 0.5
- Morphological cytotoxicity grade ([1]; 0.1 μg, 24 hrs + 48 hrs): 1
- Morphological cytotoxicity grade ([1]; 0.1 μg, 24 hrs + 72 hrs): 0.5
- Morphological cytotoxicity grade ([1]; 0.1 μg, 24 hrs + 96 hrs): 0
- Morphological cytotoxicity grade ([1]; 0.1 μg, 24 hrs + 120 hrs): 0
- Morphological cytotoxicity grade ([1]; 0.1 μg, Continuous 6 hrs): 0
- Morphological cytotoxicity grade ([1]; 0.1 μg, Continuous 24 hrs (first listing)): 1
- Morphological cytotoxicity grade ([1]; 0.1 μg, Continuous 24 hrs (second listing)): 0
- Morphological cytotoxicity grade ([1]; 0.1 μg, Continuous 48 hrs): 1
- Morphological cytotoxicity grade ([1]; 0.1 μg, Continuous 72 hrs): 1
- Morphological cytotoxicity grade ([1]; 0.1 μg, Continuous 120 hrs): 1
- Morphological cytotoxicity grade ([1]; 0.1 μg, Continuous 168 hrs): 1
- Morphological cytotoxicity grade ([1]; 0.1 μg, Continuous 216 hrs): 1
- Morphological cytotoxicity grade ([1]; 0.1 μg, Continuous 264 hrs): 1
- Morphological cytotoxicity grade ([1]; 1 μg, 5 min + 2 hrs): 0
- Morphological cytotoxicity grade ([1]; 1 μg, 5 min + 48 hrs): 1
- Morphological cytotoxicity grade ([1]; 1 μg, 5 min + 72 hrs): 1
- Morphological cytotoxicity grade ([1]; 1 μg, 5 min + 96 hrs): 1
- Morphological cytotoxicity grade ([1]; 1 μg, 5 min + 120 hrs): 1
- Morphological cytotoxicity grade ([1]; 1 μg, 24 hrs + 24 hrs): 3
- Morphological cytotoxicity grade ([1]; 1 μg, 24 hrs + 48 hrs): 4
- Morphological cytotoxicity grade ([1]; 1 μg, 24 hrs + 72 hrs): 4
- Morphological cytotoxicity grade ([1]; 1 μg, 24 hrs + 96 hrs): 4
- Morphological cytotoxicity grade ([1]; 1 μg, 24 hrs + 120 hrs): 4
- Morphological cytotoxicity grade ([1]; 1 μg, Continuous 24 hrs (first listing)): 3
- Morphological cytotoxicity grade ([1]; 1 μg, Continuous 24 hrs (second listing)): 3
- Morphological cytotoxicity grade ([1]; 1 μg, Continuous 48 hrs): 3
- Morphological cytotoxicity grade ([1]; 1 μg, Continuous 72 hrs): 3
- Morphological cytotoxicity grade ([1]; 1 μg, Continuous 96 hrs): 3
- Morphological cytotoxicity grade ([1]; 1 μg, Continuous 120 hrs): 3
- Morphological cytotoxicity grade ([1]; 1 μg, Continuous 168 hrs): 4
- Morphological cytotoxicity grade ([1]; 1 μg, Continuous 216 hrs): 4
- Morphological cytotoxicity grade ([1]; 1 μg, Continuous 264 hrs): 4
- cytotoxicity grade at in vitro effective dosage ([1]; 1 μg/ml, anti-migration/contraction effective dose): 1
- Morphological cytotoxicity grade ([1]; 10 μg, 5 min + 2 hrs): 0.5
- Morphological cytotoxicity grade ([1]; 10 μg, 5 min + 24 hrs): 4
- Morphological cytotoxicity grade ([1]; 10 μg, 5 min + 48 hrs): 4
- Morphological cytotoxicity grade ([1]; 10 μg, 5 min + 120 hrs): 5
- adverse effect [2]: elevation of the mean relative heart weight in treated female animals
- Toxicity Grade ([3]; Day 6, 1.0 μg/mL): +4
- Toxicity Grade ([3]; Day 8, 1.0 μg/mL): +4
- Toxicity Grade ([3]; Day 10, 1.0 μg/mL): +4
- acute toxicity ([4]; 3.5 mg/kg intravenously): no acute toxicity
- maximal recovery from tissue extracts ([4]; 3.5 mg/kg intravenously): 32%
- tissue localization ([4]; 3.5 mg/kg intravenously): localized to the lung and the injection site
- levels in tissues ([4]; 12 hours after administration): very low levels
- intimal proliferation [5]: significantly inhibited intimal proliferation for the first two weeks
- coronary luminal area ([6]; 0.1, 1.5 or 10.0 μg/ml, three weeks after intervention): sustained arterial dilation
- myocardial or arterial lesions (histology) ([6]; in vivo): did not result in myocardial or arterial lesions
